From ChEMBL document CHEMBL1157926, “Synthesis and biological evaluation of combretastatin analogs as cell cycle inhibitors of the G1 to S transition in Saccharomyces cerevisiae” (2010)
The source made the active and inactive calls. No cut-off for these calls is given here.

How the values were obtained:
Saccharomyces cerevisiae [1] = test: Growth inhibition of Saccharomyces cerevisiae BY4741 at 450 uM up to 180 mins; type: functional, organism-based
Saccharomyces cerevisiae [2] = test: Growth inhibition of Saccharomyces cerevisiae BY4741 at 300 uM up to 180 mins; type: functional, organism-based
Saccharomyces cerevisiae [3] = test: Growth inhibition of Saccharomyces cerevisiae BY4741 at 150 uM up to 180 mins; type: functional, organism-based
Saccharomyces cerevisiae [4] = test: Induction of G1 phase arrest in Saccharomyces cerevisiae expressing TAP-tagged Cln2 assessed as down-regulation of Cln2 level at 450 uM after 3 hrs by Western blot analysis; type: functional, organism-based
Saccharomyces cerevisiae [5] = test: Induction of log phase growth arrest in Saccharomyces cerevisiae BY4741; type: functional, organism-based
Saccharomyces cerevisiae [6] = test: Reduction of budding index in Saccharomyces cerevisiae BY4741 at 450 uM relative to control; type: functional; set-up: scale not given: the % may be the effect or the level left
Saccharomyces cerevisiae [7] = test: Induction of G1 phase arrest in Saccharomyces cerevisiae expressing TAP-tagged Cln1 assessed as down-regulation of Cln1 level at 450 uM after 3 hrs by Western blot analysis; type: functional, organism-based
Saccharomyces cerevisiae [8] = test: Induction of snf1 phosphorylation at T210 in Saccharomyces cerevisiae expressing Snf1-9myc at 450 uM after 3 hrs by Western blot analysis; type: functional, organism-based
Saccharomyces cerevisiae [9] = test: Induction of G1 phase arrest in alpha factor treated Saccharomyces cerevisiae expressing TAP-tagged Clb5 assessed as inhibition of Clb5 expression at 450 uM after 3 hrs by FACS analysis; type: functional, organism-based
Saccharomyces cerevisiae [10] = test: Induction of G1 phase arrest in Saccharomyces cerevisiae expressing TAP-tagged Sic1 assessed as down-regulation of Sic1 level at 450 uM after 3 hrs by Western blot analysis; type: functional, organism-based
Saccharomyces cerevisiae [11] = test: Cell cycle arrest in Saccharomyces cerevisiae BY4741 assessed as accumulation of cells at G1 phase at 450 uM after 3 hrs by FACS analysis; type: functional
Saccharomyces cerevisiae [12] = test: Induction of G1 phase arrest in Saccharomyces cerevisiae expressing TAP-tagged Clb5 assessed as down-regulation of Clb5 level at 450 uM after 3 hrs by Western blot analysis; type: functional, organism-based
Saccharomyces cerevisiae [13] = test: Cell cycle arrest in Saccharomyces cerevisiae BY4741 assessed as accumulation of cells at metaphase with post synthetic DNA content by FACS analysis; type: functional, organism-based
Saccharomyces cerevisiae [14] = test: Cell cycle arrest in Saccharomyces cerevisiae BY4741 assessed as accumulation of cells at metaphase with short spindles by FACS analysis; type: functional, organism-based

| Structure (SMILES) | growth inhibition (GI) (Saccharomyces cerevisiae [1]) | growth inhibition (GI) (Saccharomyces cerevisiae [2]) | growth inhibition (GI) (Saccharomyces cerevisiae [3]) | also measured |
| --- | --- | --- | --- | --- |
| COc1ccc(/C=C\c2cc(OC)c(OC)c(OC)c2)cc1N | inactive | inactive | inactive |  |
| COc1ccc(/C=C/c2cc(OC)c(OC)c(OC)c2)cc1B(O)O | inactive | inactive | inactive |  |
| COc1ccc(/C=C/c2cc(OC)c(OC)c(OC)c2)c(O)c1O | inactive | inactive | inactive |  |
| COc1ccc(/C=C\c2cc(OC)c(OC)c(OC)c2)cc1O [COMBRETASTATIN A4] |  |  |  | Activity (Saccharomyces cerevisiae [4]): inactive; Activity (Saccharomyces cerevisiae [5]): Dose-dependent effect; Activity (Saccharomyces cerevisiae [6]): 42%; Activity (Saccharomyces cerevisiae [7]): inactive; Activity (Saccharomyces cerevisiae [8]): Active; Activity (Saccharomyces cerevisiae [9]): Active; Activity (Saccharomyces cerevisiae [10]): inactive; Activity (Saccharomyces cerevisiae [11]): 50%; Activity (Saccharomyces cerevisiae [12]): Active |
| COc1ccc(/C=C/c2cc(OC)c(OC)c(OC)c2)cc1N | inactive | inactive | inactive |  |
| COc1ccc(/C=C/c2cc(OC)c(OC)c(OC)c2)cc1O | inactive | inactive | inactive |  |
| COc1ccc(/C=C/c2cc(OC)c(OC)c(OC)c2)cc1[N+](=O)[O-] | inactive | inactive | inactive |  |
| COc1ccc(/C=C\c2cc(OC)c(OC)c(OC)c2)cc1F | inactive | inactive | inactive |  |
| COc1ccc(/C=C\c2cc(OC)c(OC)c(OC)c2)c(O)c1O |  |  |  | Activity (Saccharomyces cerevisiae [5]): Dose-dependent effect; Activity (Saccharomyces cerevisiae [13]): Active; Activity (Saccharomyces cerevisiae [14]): Active |
| COc1ccc(/C=C\c2cc(OC)c(OC)c(OC)c2)cc1B(O)O |  |  |  | Activity (Saccharomyces cerevisiae [4]): inactive; Activity (Saccharomyces cerevisiae [5]): Dose-dependent effect; Activity (Saccharomyces cerevisiae [6]): 42%; Activity (Saccharomyces cerevisiae [7]): inactive; Activity (Saccharomyces cerevisiae [8]): Active; Activity (Saccharomyces cerevisiae [9]): Active; Activity (Saccharomyces cerevisiae [10]): inactive; Activity (Saccharomyces cerevisiae [11]): 50%; Activity (Saccharomyces cerevisiae [12]): Active |
| COc1ccc(/C=C/c2cc(OC)c(OC)c(OC)c2)cc1F | inactive | inactive | inactive |  |
| COc1ccc(/C=C\c2cc(OC)c(OC)c(OC)c2)cc1[N+](=O)[O-] | inactive | inactive | inactive |  |
